# Experimental data from PubChem BioAssay AID1963442 (Molecular Pharmacology Branch, DTP, NCI, 2024).
# Test system: MPNST complex spheroid with HUVEC/MSC, growth, % test/control
# Assay: Anticancer human tumor MPNST cell line growth inhibition [Asc];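 also: compounds left on spheroids for seven days before reading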
# Conditions: for IC50: curve of first compound; for viability, T/C: stronger effect = lower value
# Summary of the method: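 Spheroid model: tumor line + HUVEC + hMSC. Single agents and combinations; top conc. at/near clinical Cmax (10 microM if undetermined), half-log dilutions. DMSO stocks at 800-fold test concentration.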
compound,measurement,setting,value
NC1CCC(NC2CC2c2ccccc2)CC1 (configuration not stated) + Cc1c(S(C)(=O)=O)c(-c2cc(F)cc(N3CCN(c4ccc(NS(=O)(=O)c5ccc(NC(CCN6CCC(C(=O)OCCCP(=O)(O)O)CC6)CSc6ccccc6)c(S(=O)(=O)C(F)(F)F)c5)cc4)CC3)c2)c(-c2ccc(Cl)cc2)n1C(C)C,IC50,second compound 0.1 µM,> 0.1 µM
same,IC50,second compound 0.316 µM,> 0.1 µM
same,IC50,second compound 1 µM,> 0.1 µM
same,IC50,second compound 3.16 µM,> 0.1 µM
same,IC50,second compound 10 µM,> 0.1 µM
same,"viability, T/C","second compound 0.1 µM, first compound 0.000316 µM",67.4%
same,"viability, T/C","second compound 0.1 µM, first compound 0.001 µM",71.3%
same,"viability, T/C","second compound 0.1 µM, first compound 0.00316 µM",63.5%
same,"viability, T/C","second compound 0.1 µM, first compound 0.01 µM",75%
same,"viability, T/C","second compound 0.1 µM, first compound 0.0316 µM",72.4%
same,"viability, T/C","second compound 0.1 µM, first compound 0.1 µM",64.2%
same,"viability, T/C","second compound 0.316 µM, first compound 0.000316 µM",81.8%
same,"viability, T/C","second compound 0.316 µM, first compound 0.001 µM",67.6%
same,"viability, T/C","second compound 0.316 µM, first compound 0.00316 µM",87.1%
same,"viability, T/C","second compound 0.316 µM, first compound 0.01 µM",64.5%
same,"viability, T/C","second compound 0.316 µM, first compound 0.0316 µM",66.4%
same,"viability, T/C","second compound 0.316 µM, first compound 0.1 µM",61.8%
same,"viability, T/C","second compound 1 µM, first compound 0.000316 µM",73.8%
same,"viability, T/C","second compound 1 µM, first compound 0.001 µM",63.2%
same,"viability, T/C","second compound 1 µM, first compound 0.00316 µM",70.4%
same,"viability, T/C","second compound 1 µM, first compound 0.01 µM",66.5%
same,"viability, T/C","second compound 1 µM, first compound 0.0316 µM",69.4%
same,"viability, T/C","second compound 1 µM, first compound 0.1 µM",59.8%
same,"viability, T/C","second compound 3.16 µM, first compound 0.000316 µM",60.8%
same,"viability, T/C","second compound 3.16 µM, first compound 0.001 µM",81.5%
same,"viability, T/C","second compound 3.16 µM, first compound 0.00316 µM",64.9%
same,"viability, T/C","second compound 3.16 µM, first compound 0.01 µM",65.8%
same,"viability, T/C","second compound 3.16 µM, first compound 0.0316 µM",65.4%
same,"viability, T/C","second compound 3.16 µM, first compound 0.1 µM",54.1%
same,"viability, T/C","second compound 10 µM, first compound 0.000316 µM",79%
same,"viability, T/C","second compound 10 µM, first compound 0.001 µM",83.2%
same,"viability, T/C","second compound 10 µM, first compound 0.00316 µM",69.2%
same,"viability, T/C","second compound 10 µM, first compound 0.01 µM",69.7%
same,"viability, T/C","second compound 10 µM, first compound 0.0316 µM",65.9%
same,"viability, T/C","second compound 10 µM, first compound 0.1 µM",62%
NC(=O)C(=Cn1cnc(-c2cc(C(F)(F)F)cc(C(F)(F)F)c2)n1)c1cncnc1 + CNC(C)C(=O)NC1CN(S(=O)(=O)c2cccc(S(=O)(=O)N3CCC4CCC(C(=O)NC(c5ccccc5)c5ccccc5)N4C(=O)C(NC(=O)C(C)NC)C3)c2)CCC2CCC(C(=O)NC(c3ccccc3)c3ccccc3)N2C1=O,IC50,second compound 0.00316 µM,0.0116 µM
same,IC50,second compound 0.01 µM,0.0546 µM
same,IC50,second compound 0.0316 µM,0.163 µM
same,IC50,second compound 0.1 µM,0.0527 µM
same,IC50,second compound 0.316 µM,0.0181 µM
same,IC50,second compound 1 µM,0.0698 µM
same,"viability, T/C","second compound 0.00316 µM, first compound 0.000949 µM",68.7%
same,"viability, T/C","second compound 0.00316 µM, first compound 0.003 µM",65%
same,"viability, T/C","second compound 0.00316 µM, first compound 0.00949 µM",49.3%
same,"viability, T/C","second compound 0.00316 µM, first compound 0.03 µM",43.9%
same,"viability, T/C","second compound 0.00316 µM, first compound 0.0949 µM",28%
same,"viability, T/C","second compound 0.00316 µM, first compound 0.3 µM",30.8%
same,"viability, T/C","second compound 0.01 µM, first compound 0.000949 µM",78.4%
same,"viability, T/C","second compound 0.01 µM, first compound 0.003 µM",73%
same,"viability, T/C","second compound 0.01 µM, first compound 0.00949 µM",84.1%
same,"viability, T/C","second compound 0.01 µM, first compound 0.03 µM",66.3%
same,"viability, T/C","second compound 0.01 µM, first compound 0.0949 µM",34.6%
same,"viability, T/C","second compound 0.01 µM, first compound 0.3 µM",35.3%
same,"viability, T/C","second compound 0.0316 µM, first compound 0.000949 µM",58.5%
same,"viability, T/C","second compound 0.0316 µM, first compound 0.003 µM",72%
same,"viability, T/C","second compound 0.0316 µM, first compound 0.00949 µM",70.5%
same,"viability, T/C","second compound 0.0316 µM, first compound 0.03 µM",82.1%
same,"viability, T/C","second compound 0.0316 µM, first compound 0.0949 µM",59.2%
same,"viability, T/C","second compound 0.0316 µM, first compound 0.3 µM",34.9%
same,"viability, T/C","second compound 0.1 µM, first compound 0.000949 µM",101%
same,"viability, T/C","second compound 0.1 µM, first compound 0.003 µM",80.7%
same,"viability, T/C","second compound 0.1 µM, first compound 0.00949 µM",103%
same,"viability, T/C","second compound 0.1 µM, first compound 0.03 µM",62.3%
same,"viability, T/C","second compound 0.1 µM, first compound 0.0949 µM",37.5%
same,"viability, T/C","second compound 0.1 µM, first compound 0.3 µM",36.9%
same,"viability, T/C","second compound 0.316 µM, first compound 0.000949 µM",72.6%
same,"viability, T/C","second compound 0.316 µM, first compound 0.003 µM",49.9%
same,"viability, T/C","second compound 0.316 µM, first compound 0.00949 µM",60.5%
same,"viability, T/C","second compound 0.316 µM, first compound 0.03 µM",46%
same,"viability, T/C","second compound 0.316 µM, first compound 0.0949 µM",43.7%
same,"viability, T/C","second compound 0.316 µM, first compound 0.3 µM",34.4%
same,"viability, T/C","second compound 1 µM, first compound 0.000949 µM",63.2%
same,"viability, T/C","second compound 1 µM, first compound 0.003 µM",59%
same,"viability, T/C","second compound 1 µM, first compound 0.00949 µM",66.2%
same,"viability, T/C","second compound 1 µM, first compound 0.03 µM",55.6%
same,"viability, T/C","second compound 1 µM, first compound 0.0949 µM",47.8%
same,"viability, T/C","second compound 1 µM, first compound 0.3 µM",36%
